The values below come from PubChem BioAssay AID330 (DTP/NCI, 2004).

In the assay the test system is P388 leukemia ip, CD2F1 mice, survival T/C. As to the kind of experiment: NCI In Vivo Anticancer Drug Screen. Data for tumor model P388 Leukemia (intraperitoneal) in CD2F1 (CDF1) mice. The settings on record: endpoint: median survival time, higher = longer survival. The procedure, abridged:
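Mice carrying the transplanted tumor received test compound or vehicle. Survival was recorded in each group, and the value is the treated-group measurement divided by that of the vehicle-treated control group.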

Where [1] appears, read: dose: 100.0 mg/kg/injection, schedule: Q04DX002 (ip), vehicle: saline with Tween-80.
Where [2] appears, read: dose: 200.0 mg/kg/injection, schedule: Q04DX002 (ip), vehicle: saline with Tween-80.
Setting [3] is: dose: 400.0 mg/kg/injection, schedule: Q04DX002 (ip), vehicle: saline with Tween-80.
Where [4] appears, read: dose: 50.0 mg/kg/injection, schedule: Q01DX009 (ip), vehicle: Klucel (hydroxypropylcellulose) (HPC).
Setting [5] is: dose: 100.0 mg/kg/injection, schedule: Q01DX009 (ip), vehicle: Klucel (hydroxypropylcellulose) (HPC).
[6] abbreviates: dose: 200.0 mg/kg/injection, schedule: Q01DX009 (ip), vehicle: Klucel (hydroxypropylcellulose) (HPC).
The mark [7] stands for this setting: dose: 50.0 mg/kg/injection, schedule: Q01DX009 (ip), vehicle: saline with Tween-80.
[8] abbreviates: dose: 100.0 mg/kg/injection, schedule: Q01DX009 (ip), vehicle: saline with Tween-80.
The mark [9] stands for this setting: dose: 60.0 mg/kg/injection, schedule: Q01DX005 (ip), vehicle: saline with Tween-80.
The mark [10] stands for this setting: dose: 240.0 mg/kg/injection, schedule: Q01DX005 (ip), vehicle: saline with Tween-80.
Where [11] appears, read: dose: 120.0 mg/kg/injection, schedule: Q01DX005 (ip), vehicle: saline with Tween-80.

Where “and” joins values, the source holds several entries; their conditions need not be identical. Identical values can stand only once. Toxic doses and inconclusive results are not listed.

For the compound `CCOC(=O)C(C(=O)OCC)C1(O)C2CCCC21` (stereo not given), the T/C reads like this: under setting [1], 101 % of control; under setting [2], 101 % of control; under setting [3], 104 % of control.
`COc1ccccc1N1C(=O)CSC1=Nc1ccccc1`: the T/C (dose: 50.0 mg/kg/injection, schedule: Q01DX009 (ip), vehicle: saline) is 98 % of control; the T/C (dose: 100.0 mg/kg/injection, schedule: Q01DX009 (ip), vehicle: saline) was 96 % of control; the T/C (dose: 200.0 mg/kg/injection, schedule: Q01DX009 (ip), vehicle: saline) was 100 % of control.
As to `O=C1CC(=O)N(CCc2ccncc2)C(=O)N1CCc1ccncc1`, the T/C runs as follows: (dose: 50.0 mg/kg/injection, schedule: Q01DX005 (ip), vehicle: saline) 106 % of control; (dose: 100.0 mg/kg/injection, schedule: Q01DX005 (ip), vehicle: saline) 106 % of control.
On to `CCc1nc(N)nc(N)c1-c1ccc(Cl)c(N)c1`, for which the T/C (dose: 3.12 mg/kg/injection, schedule: Q01DX009 (ip), vehicle: distilled water + Tween-80) is 101 % of control; the T/C (dose: 6.25 mg/kg/injection, schedule: Q01DX009 (ip), vehicle: distilled water + Tween-80) was 111 % of control; the T/C (dose: 12.5 mg/kg/injection, schedule: Q01DX009 (ip), vehicle: distilled water + Tween-80) was 110 % of control; the T/C (dose: 25.0 mg/kg/injection, schedule: Q01DX009 (ip), vehicle: distilled water + Tween-80) was 100 % of control; the T/C (dose: 50.0 mg/kg/injection, schedule: Q01DX009 (ip), vehicle: distilled water + Tween-80) was 100 % of control and 111 % of control; the T/C (dose: 100.0 mg/kg/injection, schedule: Q01DX009 (ip), vehicle: distilled water + Tween-80) was 105 % of control. The T/C by setting is: (dose: 200.0 mg/kg/injection, schedule: Q01DX009 (ip), vehicle: distilled water + Tween-80) 101 % of control; (dose: 400.0 mg/kg/injection, schedule: Q01DX009 (ip), vehicle: distilled water + Tween-80) 118 % of control.
In the case of `O=C1CC2(CCCC2)C(=O)N1c1ccc(N2C(=O)CC3(CCCC3)C2=O)cc1`, the T/C reads like this: under setting [4], 96 % of control; under setting [5], 99 % of control; under setting [6], 96 % of control.
On to `Cc1cc(Cl)nn2cc(CC(=O)O)nc12`, for which the T/C by setting is: (dose: 100.0 mg/kg/injection, schedule: Q01DX001 (ip), vehicle: Klucel (hydroxypropylcellulose) (HPC)) 100 % of control; (dose: 200.0 mg/kg/injection, schedule: Q01DX001 (ip), vehicle: Klucel (hydroxypropylcellulose) (HPC)) 104 % of control; (dose: 400.0 mg/kg/injection, schedule: Q01DX001 (ip), vehicle: Klucel (hydroxypropylcellulose) (HPC)) 98 % of control.
With `O=[N+]([O-])c1ccc(-c2csc(-c3ccc(Br)cc3)n2)cc1`, the T/C under setting [4] is 87 % of control, the T/C under setting [5] was 95 % of control and the T/C under setting [6] is 92 % of control.
As to `Nc1nc(N)c2cc(S(=O)(=O)c3ccc(Cl)cc3)ccc2n1`, the T/C was 100 % of control under setting [7]; 98 % of control under setting [8]; 97 % of control (dose: 200.0 mg/kg/injection, schedule: Q01DX009 (ip), vehicle: saline with Tween-80).
Consider `CCCCCCCCCCSc1ncnc2nc[nH]c12`, for which the T/C (dose: 12.5 mg/kg/injection, schedule: Q01DX009 (ip), vehicle: saline with Tween-80) was 100 % of control; the T/C (dose: 25.0 mg/kg/injection, schedule: Q01DX009 (ip), vehicle: saline with Tween-80) was 90 % of control; the T/C under setting [7] is 90 % of control.
Regarding `CCO/C=C1/N=C(c2cc(OC)cc(OC)c2)OC1=O`, the T/C by setting is: (dose: 15.0 mg/kg/injection, schedule: Q01DX005 (ip), vehicle: saline with Tween-80) 104 % of control; (dose: 30.0 mg/kg/injection, schedule: Q01DX005 (ip), vehicle: saline with Tween-80) 101 % of control; under setting [9], 90 % of control and 96 % of control; under setting [10], 87 % of control.
On to `Cc1cc(N=[N+]=[N-])c2ccc(Cl)cc2n1`, for which the T/C was 94 % of control under setting [9] and 100 % of control under setting [11].
Regarding `O=C1C2C3C=CC(C2C(=O)N1COP(=O)(O)O)C1C2C(=O)N(COP(=O)(O)O)C(=O)C2C31` (stereo not given), the T/C is, setting by setting: (dose: 20.0 mg/kg/injection, schedule: Q01DX009 (ip), vehicle: water) 112 % of control; (dose: 40.0 mg/kg/injection, schedule: Q01DX009 (ip), vehicle: water) 112 % of control; (dose: 80.0 mg/kg/injection, schedule: Q01DX009 (ip), vehicle: water) 112 % of control and 90 % of control; (dose: 160.0 mg/kg/injection, schedule: Q01DX009 (ip), vehicle: water) 165 % of control; (dose: 240.0 mg/kg/injection, schedule: Q01DX009 (ip), vehicle: water) 152 % of control.
In the case of `CC1=CC(=O)CCC12CCOC2=O` (stereo not given), the T/C was 104 % of control under setting [9], 101 % of control under setting [11] and 101 % of control under setting [10].
Take `COc1cccc(/C=N/C(=S)NC2(C)C3CCC(C3)C2(C)C)c1O` (stereo not given): the T/C by setting is: (dose: 12.5 mg/kg/injection, schedule: Q01DX009 (ip), vehicle: olive oil, sesame oil, peanut oil) 105 % of control; (dose: 25.0 mg/kg/injection, schedule: Q01DX009 (ip), vehicle: olive oil, sesame oil, peanut oil) 102 % of control; (dose: 50.0 mg/kg/injection, schedule: Q01DX009 (ip), vehicle: olive oil, sesame oil, peanut oil) 99 % of control; (dose: 100.0 mg/kg/injection, schedule: Q01DX009 (ip), vehicle: olive oil, sesame oil, peanut oil) 97 % of control; (dose: 200.0 mg/kg/injection, schedule: Q01DX009 (ip), vehicle: olive oil, sesame oil, peanut oil) 94 % of control; (dose: 400.0 mg/kg/injection, schedule: Q01DX009 (ip), vehicle: olive oil, sesame oil, peanut oil) 97 % of control.
In the case of `O=C1NC(c2ccccc2)C(c2ccccc2)(c2ccccc2)O1` (stereo not given), the T/C was 93 % of control under setting [7] and 86 % of control under setting [8].
Consider `CC(=O)N(CC1CNc2nc(N)[nH]c(=O)c2N1)c1ccc(C(=O)NC(CCC(=O)O)C(=O)O)cc1` (stereo not given), for which the T/C reads like this: (dose: 50.0 mg/kg/injection, schedule: Q04DX003 (ip), vehicle: saline) 98 % of control; (dose: 100.0 mg/kg/injection, schedule: Q04DX003 (ip), vehicle: saline) 102 % of control; (dose: 200.0 mg/kg/injection, schedule: Q04DX003 (ip), vehicle: saline) 95 % of control.
Turning to `CC1(C)S(=O)(=O)OCCOS1(=O)=O`, the T/C (dose: 3.75 mg/kg/injection, schedule: Q01DX005 (ip), vehicle: Klucel (hydroxypropylcellulose) (HPC)) is 107 % of control; the T/C (dose: 7.5 mg/kg/injection, schedule: Q01DX005 (ip), vehicle: Klucel (hydroxypropylcellulose) (HPC)) is 107 % of control and 111 % of control and 115 % of control; the T/C (dose: 15.0 mg/kg/injection, schedule: Q01DX005 (ip), vehicle: Klucel (hydroxypropylcellulose) (HPC)) is 119 % of control.
With `COc1cc(OC)c2cc(C(=O)c3cccc4ccccc34)c(=O)oc2c1`, the T/C is 102 % of control under setting [9], 114 % of control under setting [11] and 91 % of control under setting [10].
As to `CCN(CC)OCC=C(C)CCC=C(C)C` (mixture of isomers), the T/C by setting is: under setting [1], 111 % of control; under setting [2], 109 % of control; under setting [3], 108 % of control.
As for `[N-]=[N+]=[N-]`, the T/C runs as follows: (dose: 3.0 mg/kg/injection, schedule: Q01DX009 (ip), vehicle: saline with Tween-80) 100 % of control; (dose: 6.0 mg/kg/injection, schedule: Q01DX009 (ip), vehicle: saline with Tween-80) 105 % of control.
For `CC(O)C(=O)N1Cc2cc3ccccc3nc2C1` (stereo not given), the T/C was 94 % of control (dose: 4.0 mg/kg/injection, schedule: Q01DX009 (ip), vehicle: saline with Tween-80); 89 % of control (dose: 8.0 mg/kg/injection, schedule: Q01DX009 (ip), vehicle: saline with Tween-80); 92 % of control (dose: 16.0 mg/kg/injection, schedule: Q01DX009 (ip), vehicle: saline with Tween-80); 90 % of control (dose: 32.0 mg/kg/injection, schedule: Q01DX009 (ip), vehicle: saline with Tween-80); 91 % of control (dose: 64.0 mg/kg/injection, schedule: Q01DX009 (ip), vehicle: saline with Tween-80).
`CCOC(=O)C(=CNc1ccc2c(c1)OCO2)C(=O)OCC`: the T/C runs as follows: (dose: 50.0 mg/kg/injection, schedule: Q01DX005 (ip), vehicle: distilled water + Tween-80 + alcohol) 100 % of control; (dose: 100.0 mg/kg/injection, schedule: Q01DX005 (ip), vehicle: distilled water + Tween-80 + alcohol) 95 % of control; (dose: 200.0 mg/kg/injection, schedule: Q01DX005 (ip), vehicle: distilled water + Tween-80 + alcohol) 102 % of control.
